Assay results published in US20250197382A1, “KIF18A INHIBITOR” (WIGEN BIOMEDICINE TECHNOLOGY (SHANGHAI) CO., LTD., priority 2022, published 2025).
pIC50: −log10 of the molar value.

These compounds were tested against Recombinant human KIF18A (1-467His-tagged) protein (Homo sapiens (Human), UniProt Q8NI77) (assay: KIF18A enzyme assay (microtubule-stimulated ATPase activity, ADP-Glo)). Settings: 30 nM KIF18A, ATP 75 μM, read-out: inhibitory activity against KIF18A IC50.
Type: biochemical
In short: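 Baculovirus-expressed human KIF18A (1-467, His-tagged; 30 nM) preincubated 15 min at room temperature with compound (22-point 2-fold series) in pH 7.5 Tris buffer containing 30 μg/mL pig microtubules and 1 μM paclitaxel.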

Chain of Recombinant human KIF18A (1-467His-tagged) protein (Q8NI77 1-467): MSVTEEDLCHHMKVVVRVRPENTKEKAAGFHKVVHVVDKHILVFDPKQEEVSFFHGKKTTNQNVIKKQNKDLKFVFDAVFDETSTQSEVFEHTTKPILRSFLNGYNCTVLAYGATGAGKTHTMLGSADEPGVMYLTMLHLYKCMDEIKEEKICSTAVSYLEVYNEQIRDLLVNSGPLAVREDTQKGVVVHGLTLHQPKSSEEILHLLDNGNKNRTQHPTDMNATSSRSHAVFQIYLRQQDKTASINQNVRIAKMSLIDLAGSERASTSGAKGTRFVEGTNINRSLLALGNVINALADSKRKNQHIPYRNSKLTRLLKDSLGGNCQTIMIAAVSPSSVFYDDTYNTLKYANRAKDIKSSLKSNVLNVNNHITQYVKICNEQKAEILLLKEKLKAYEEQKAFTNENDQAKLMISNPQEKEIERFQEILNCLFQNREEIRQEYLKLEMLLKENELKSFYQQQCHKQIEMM
Chain of Recombinant human KIF18A (1-467His-tagged) protein (P02550 whole entry partner): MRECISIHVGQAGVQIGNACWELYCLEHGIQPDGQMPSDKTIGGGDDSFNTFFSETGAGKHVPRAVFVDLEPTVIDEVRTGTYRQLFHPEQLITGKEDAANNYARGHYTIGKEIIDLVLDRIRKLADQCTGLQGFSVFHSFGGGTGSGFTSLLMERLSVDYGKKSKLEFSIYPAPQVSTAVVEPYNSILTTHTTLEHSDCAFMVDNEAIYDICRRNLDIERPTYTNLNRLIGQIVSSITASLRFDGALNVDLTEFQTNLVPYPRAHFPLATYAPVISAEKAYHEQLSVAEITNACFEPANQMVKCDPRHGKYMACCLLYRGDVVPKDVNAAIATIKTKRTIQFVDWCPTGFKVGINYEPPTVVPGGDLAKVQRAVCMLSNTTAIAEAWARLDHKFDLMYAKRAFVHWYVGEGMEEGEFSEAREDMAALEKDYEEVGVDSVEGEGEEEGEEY
Chain of Recombinant human KIF18A (1-467His-tagged) protein (P02554 whole entry partner): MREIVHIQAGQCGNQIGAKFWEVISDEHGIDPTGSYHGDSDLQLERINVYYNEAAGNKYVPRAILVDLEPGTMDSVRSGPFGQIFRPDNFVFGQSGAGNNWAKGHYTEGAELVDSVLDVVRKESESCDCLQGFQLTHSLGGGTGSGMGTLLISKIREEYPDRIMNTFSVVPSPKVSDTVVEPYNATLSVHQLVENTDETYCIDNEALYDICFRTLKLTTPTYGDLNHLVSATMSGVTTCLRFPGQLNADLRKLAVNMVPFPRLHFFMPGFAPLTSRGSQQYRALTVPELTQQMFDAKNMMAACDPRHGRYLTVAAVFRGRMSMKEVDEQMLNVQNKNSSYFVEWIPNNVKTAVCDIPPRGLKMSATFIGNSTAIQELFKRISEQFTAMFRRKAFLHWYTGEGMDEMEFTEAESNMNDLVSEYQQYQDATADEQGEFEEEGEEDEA

pIC50, ≥ 7.00:
C[C@@H](CO)NS(=O)(=O)c1ccc(C(=O)Nc2cc3ccoc3c(N3CCC(F)(F)CC3)n2)c(N2CCC3(CC2)CC3)c1 [Compound 221]
C[C@H](CO)NS(=O)(=O)c1ccc(C(=O)Nc2cc3ccoc3c(N3CCC(F)(F)CC3)n2)c(N2CCC3(CC2)CC3)c1 [Compound 222]
C[C@@H]1CN(c2nc(NC(=O)c3ccc(S(=O)(=O)N[C@@H](C)CO)cc3N3CCC4(CC3)CC4)cc3ccoc23)CCO1 [Compound 223]
C[C@H](CO)NS(=O)(=O)c1ccc(C(=O)Nc2cc3ccoc3c(N3CCO[C@H](C)C3)n2)c(N2CCC3(CC2)CC3)c1 [Compound 224]
O=C(Nc1ccc(NS(=O)(=O)CCO)cc1N1CCC2(CC1)CC2)c1cc2ccoc2c(N2CCC(F)(F)CC2)n1 [Compound 225]
C[C@@H]1CN(c2nc(C(=O)Nc3ccc(NS(=O)(=O)CCO)cc3N3CCC4(CC3)CC4)cc3ccoc23)CCO1 [Compound 226]
C[C@H]1CN(c2nc(C(=O)Nc3ccc(NS(=O)(=O)CCO)cc3N3CCC4(CC3)CC4)cc3ccoc23)CCO1 [Compound 227]
O=C(Nc1ccc(NS(=O)(=O)CCO)cc1N1CCC2(CC1)CC2)c1cc2ccoc2c(N2CC(F)(F)C2)n1 [Compound 228]
O=C(Nc1ccc(NS(=O)(=O)CCO)cc1N1CCC2(CC1)CC2)c1cc2ccoc2c(OCCC(F)(F)F)n1 [Compound 229]
O=C(Nc1ccc(NS(=O)(=O)CCO)cc1N1CCC2(CC1)CC2)c1cc2ccoc2c(N2CCC3(CC3)C2)n1 [Compound 230]
O=C(Nc1ccc(NS(=O)(=O)CCO)cc1N1CCC2(CC1)CC2)c1cc2ccoc2c(OC2CCC2)n1 [Compound 231]
CC1(F)CCN(c2nc(C(=O)Nc3ccc(NS(=O)(=O)CCO)cc3N3CCC4(CC3)CC4)cc3ccoc23)C1 (centres unmarked) [Compound 232]
O=C(Nc1ccc(NS(=O)(=O)CCO)cc1N1CCC2(CC1)CC2)c1cc2ccoc2c(N2CCC(F)CC2)n1 [Compound 233]
O=C(Nc1ccc(NS(=O)(=O)CCO)cc1N1CCC2(CC1)CC2)c1cc2ccoc2c(N2CC3CC3C2)n1 (centres unmarked) [Compound 234]
CC(C)(CO)Nc1nc(C(=O)Nc2ccc(NS(=O)(=O)CCO)cc2N2CCC3(CC2)CC3)cc2ccoc12 [Compound 235]
O=C(Nc1ccc(NS(=O)(=O)CCO)cc1N1CCC2(CC1)CC2)c1cc2ccoc2c(N2CCOCC2)n1 [Compound 236]
C[C@@H](CO)S(=O)(=O)Nc1ccc(NC(=O)c2cc3ccoc3c(N3CCC(F)(F)CC3)n2)c(N2CCC3(CC2)CC3)c1 [Compound 237]
C[C@H](CO)S(=O)(=O)Nc1ccc(NC(=O)c2cc3ccoc3c(N3CCC(F)(F)CC3)n2)c(N2CCC3(CC2)CC3)c1 [Compound 238]
C[C@@H]1CN(c2nc(C(=O)Nc3ccc(NS(=O)(=O)[C@@H](C)CO)cc3N3CCC4(CC3)CC4)cc3ccoc23)CCO1 [Compound 239]
C[C@@H]1CN(c2nc(C(=O)Nc3ccc(NS(=O)(=O)[C@H](C)CO)cc3N3CCC4(CC3)CC4)cc3ccoc23)CCO1 [Compound 240]
O=C(Nc1ccc(S(=O)(=O)NCCO)cc1N1CCC2(CC1)CC2)c1cc2ccoc2c(N2CCC(F)(F)CC2)n1 [Compound 241]
C[C@@H]1CN(c2nc(C(=O)Nc3ccc(S(=O)(=O)NCCO)cc3N3CCC4(CC3)CC4)cc3ccoc23)CCO1 [Compound 242]
C[C@H]1CN(c2nc(C(=O)Nc3ccc(S(=O)(=O)NCCO)cc3N3CCC4(CC3)CC4)cc3ccoc23)CCO1 [Compound 243]
O=C(Nc1ccc(S(=O)(=O)NCCO)cc1N1CCC2(CC1)CC2)c1cc2ccoc2c(N2CC(F)(F)C2)n1 [Compound 244]
O=C(Nc1ccc(S(=O)(=O)NCCO)cc1N1CCC2(CC1)CC2)c1cc2ccoc2c(OCCC(F)(F)F)n1 [Compound 245]
O=C(Nc1ccc(S(=O)(=O)NCCO)cc1N1CCC2(CC1)CC2)c1cc2ccoc2c(N2CCC3(CC3)C2)n1 [Compound 246]
O=C(Nc1ccc(S(=O)(=O)NCCO)cc1N1CCC2(CC1)CC2)c1cc2ccoc2c(OC2CCC2)n1 [Compound 247]
CC1(F)CCN(c2nc(C(=O)Nc3ccc(S(=O)(=O)NCCO)cc3N3CCC4(CC3)CC4)cc3ccoc23)C1 (centres unmarked) [Compound 248]
O=C(Nc1ccc(S(=O)(=O)NCCO)cc1N1CCC2(CC1)CC2)c1cc2ccoc2c(N2CCC(F)CC2)n1 [Compound 249]
O=C(Nc1ccc(S(=O)(=O)NCCO)cc1N1CCC2(CC1)CC2)c1cc2ccoc2c(N2CC3CC3C2)n1 (centres unmarked) [Compound 250]
CC(C)(CO)Nc1nc(C(=O)Nc2ccc(S(=O)(=O)NCCO)cc2N2CCC3(CC2)CC3)cc2ccoc12 [Compound 251]
O=C(Nc1ccc(S(=O)(=O)NCCO)cc1N1CCC2(CC1)CC2)c1cc2ccoc2c(N2CCOCC2)n1 [Compound 252]
C[C@@H](CO)NS(=O)(=O)c1ccc(NC(=O)c2cc3ccoc3c(N3CCC(F)(F)CC3)n2)c(N2CCC3(CC2)CC3)c1 [Compound 253]
C[C@H](CO)NS(=O)(=O)c1ccc(NC(=O)c2cc3ccoc3c(N3CCC(F)(F)CC3)n2)c(N2CCC3(CC2)CC3)c1 [Compound 254]
C[C@@H]1CN(c2nc(C(=O)Nc3ccc(S(=O)(=O)N[C@@H](C)CO)cc3N3CCC4(CC3)CC4)cc3ccoc23)CCO1 [Compound 255]
CN1CCc2cc(C(=O)Nc3ccc(NS(=O)(=O)CCO)cc3N3CCC4(CC3)CC4)cc(N3CCC(F)(F)CC3)c21 [Compound 257]
C[C@@H]1CN(c2cc(NC(=O)c3ccc(NS(=O)(=O)CCO)cc3N3CCC4(CC3)CC4)cc3c2N(C)CC3)CCO1 [Compound 258]
C[C@H]1CN(c2cc(NC(=O)c3ccc(NS(=O)(=O)CCO)cc3N3CCC4(CC3)CC4)cc3c2N(C)CC3)CCO1 [Compound 259]
CN1CCc2cc(NC(=O)c3ccc(NS(=O)(=O)CCO)cc3N3CCC4(CC3)CC4)cc(N3CC(F)(F)C3)c21 [Compound 260]
CN1CCc2cc(NC(=O)c3ccc(NS(=O)(=O)CCO)cc3N3CCC4(CC3)CC4)cc(OCCC(F)(F)F)c21 [Compound 261]
CN1CCc2cc(NC(=O)c3ccc(NS(=O)(=O)CCO)cc3N3CCC4(CC3)CC4)cc(N3CCC4(CC4)C3)c21 [Compound 262]
CN1CCc2cc(NC(=O)c3ccc(NS(=O)(=O)CCO)cc3N3CCC4(CC3)CC4)cc(OC3CCC3)c21 [Compound 263]
CN1CCc2cc(NC(=O)c3ccc(NS(=O)(=O)CCO)cc3N3CCC4(CC3)CC4)cc(N3CCC(C)(F)C3)c21 (centres unmarked) [Compound 264]
CN1CCc2cc(NC(=O)c3ccc(NS(=O)(=O)CCO)cc3N3CCC4(CC3)CC4)cc(N3CCC(F)CC3)c21 [Compound 265]
CN1CCc2cc(NC(=O)c3ccc(NS(=O)(=O)CCO)cc3N3CCC4(CC3)CC4)cc(N3CC4CC4C3)c21 (centres unmarked) [Compound 266]
CN1CCc2cc(NC(=O)c3ccc(NS(=O)(=O)CCO)cc3N3CCC4(CC3)CC4)cc(N3CCOCC3)c21 [Compound 268]
C[C@@H](CO)S(=O)(=O)Nc1ccc(C(=O)Nc2cc3c(c(N4CCC(F)(F)CC4)c2)N(C)CC3)c(N2CCC3(CC2)CC3)c1 [Compound 269]
